Common to all, as to experiment: growth of human tumour cells (NCI), 48 h
The subject of test [1] is HOP-92 NSCLC.
Test [2] has as its system HS 578T breast.
The subject of test [3] is K-562 leukemia.
Test [4] relates to MOLT-4 leukemia.
The test system of test [5] is NCI-H226 lung.
The test system of test [6] is SF-539 CNS.
For test [7], the system named is SK-MEL-28 melanoma.
Test [8] relates to SN12C renal.
The subject of test [9] is SNB-75 CNS.
Test [10] deals with UACC-257 melanoma.

Each structure is given as a SMILES string. “And” between values parts separate entries of the source, which are not always exact repeats. Equal values may be shown once.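 Results reflect a 48-hour exposure of cells in 96-well plates to compound at five concentrations. GI50 is the concentration that inhibits growth by half. TGI denotes the concentration required for complete inhibition of growth.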

In the case of `O=C(Nc1cccc(Cl)c1)Nc1ncc(CCNc2ncnc3ccsc23)s1`, the GI50 in test [1] is 0.549 µM and 1.55 µM; in test [2], 2.92 µM and 0.64 µM; in test [3], 3.54 µM and 2.4 µM; in test [4], 2.85 µM and 1.73 µM; in test [5], 1.86 µM and 2.06 µM; in test [6] it was 0.635 µM and 0.53 µM. Also, the GI50 in test [7] was 3.85 µM and 2.42 µM; in [8], 3.91 µM and 3.82 µM; in test [9] it was 1.62 µM and 1.02 µM; in [10], 2.12 µM and 1.22 µM. Moreover, the TGI in test [1] is 10.9 µM and > 10 µM; in [2] it was 39.7 µM and > 10 µM; in test [3], above 100 µM; in [4], > 27.8 µM and 4.99 µM; in test [5], 8.98 µM and > 10 µM; in test [6] it was 16.9 µM and > 10 µM. In addition, the TGI in test [7] is 17.4 µM and > 10 µM; in test [8], 18.6 µM and > 10 µM; in test [9] it was 19.5 µM and > 10 µM; in test [10], 11.4 µM and 9.27 µM.

Turning to `O=c1cc(CNc2cc(F)cc(F)c2)c2ccc(I)cc2[nH]1`, the GI50 in [1] is 1.42 µM; in test [2] it was 0.41 µM; in test [3] it was 0.203 µM; in test [4], 1.06 µM; in test [6], 0.461 µM; in test [7], above 67.3 µM. Moreover, the GI50 in [8] is 0.798 µM; in test [9], 0.199 µM; in test [10] it was above 100 µM. The TGI is above 100 µM in [1]; above 100 µM in test [2]; above 100 µM in test [3]; above 100 µM in test [4]; above 100 µM in test [5]; above 69.9 µM in [6]. Besides, the TGI in test [7] is above 100 µM; in [8], above 100 µM; in [9], 3.45 µM; in [10], above 100 µM.

As for `COc1cc2c(cc1OC)-c1ccc3cc4c(cc3c1N(CCN1CCCC1)C2)OCO4`, the GI50 was 1.79 µM in [1]; 1.53 µM in test [2]; 0.291 µM in test [3]; 0.228 µM in test [4]; 0.876 µM in test [5]; 0.643 µM in [6]. The GI50 is 7.09 µM in [7], 0.345 µM in [8], 0.357 µM in test [9] and 9.81 µM in [10]. In addition, the TGI came out at 12 µM in test [1]; 14.7 µM in test [2]; 1.65 µM in test [3]; 3.44 µM in [4]; 3.16 µM in test [5]; 2.75 µM in test [6]. Also, the TGI was found to be 20.3 µM in test [7], 1.43 µM in [8], 5.81 µM in [9] and 22.2 µM in [10].

Regarding `Cc1ccc2[nH]c(C(=O)NN3C(=O)CSC34CCCCC4C)c(-c3ccccc3)c2c1` (centres undefined), the GI50 in test [1] is 12.7 µM; in [2] it was 27.8 µM; in [3], 10.8 µM; in test [4], 9.38 µM; in test [5], 17.5 µM; in [6], 19.5 µM. The GI50 in test [7] was 19.9 µM; in test [8], 17.7 µM; in [9], 19.6 µM; in test [10], 16.8 µM. The TGI in test [1] came to 27.3 µM; in [2], 96.2 µM; in test [3] it was 42.1 µM; in test [4], 28.4 µM; in [5], 34.2 µM; in test [6], 38.4 µM. Besides, the TGI in [7] amounted to 38.3 µM; in [8], 34.2 µM; in test [9], 38.1 µM; in [10], 31.8 µM.

With `C=C1C(=O)O[C@@H]2C1CC(=O)C(C)CC/C=C(\C)CCC[C@H](C)[C@H]2OC(C)=O` (some centres undefined), the GI50 is 1.64 µM in test [1]; 15.2 µM in test [2]; 3.52 µM in [3]; 10.9 µM in test [4]; 15.1 µM in test [5]; 18.3 µM in [6]. The GI50 in test [7] was 11.8 µM; in test [8], 5.46 µM; in test [9], 14.9 µM; in test [10], 18.4 µM. For the same compound, the TGI stood at 9.12 µM in test [1]; 36 µM in [2]; 15.3 µM in test [3]; 35 µM in test [4]; 30.5 µM in test [5]; 34.6 µM in [6]. In addition, the TGI in test [7] was 25.3 µM; in test [8], 21.6 µM; in test [9] it was 29.8 µM; in [10], 36.6 µM.

For the compound `Fc1ccc(-c2nc3n(c2-c2ccncc2)CCS3)cc1`, the GI50 in test [1] was above 25 µM; in test [2], above 25 µM; in [3], above 25 µM; in test [4] it was above 25 µM; in [5], above 16.4 µM; in test [6] it was above 25 µM. Further, the GI50 in test [7], in test [8], in [9] and in test [10] was above 25 µM in each case. Further, the TGI in test [1], in [2], in test [3], in test [4], in test [5] and in test [6] was above 25 µM throughout. The TGI in test [7], in test [8], in [9] and in [10] was above 25 µM throughout.

Regarding `N#Cc1ncc(/N=C/c2ccc(N(CCCl)CCCl)cc2)s1`, the GI50 was 24.7 µM in test [1]; 63.1 µM in test [2]; 7.51 µM in [3]; 10.6 µM in test [4]; 0.897 µM in [5]; 16.8 µM in [6]. Besides, the GI50 is 79.7 µM in [7], 8.28 µM in [8], 17.6 µM in test [9] and 13.3 µM in test [10]. Moreover, the TGI in test [1] is 93.3 µM; in [2], above 100 µM; in [3], above 100 µM; in test [4], above 100 µM; in test [5], 7.71 µM; in test [6], above 100 µM. Also, the TGI in [7] is above 100 µM; in test [8], above 100 µM; in [9], above 100 µM; in test [10], 63 µM.

Turning to `CSc1nnc(CCSc2ccnc3c(C(F)(F)F)cccc23)o1`, the GI50 is 18.1 µM in test [1]; 18 µM in test [2]; 47.3 µM in test [3]; 27.7 µM in [4]; above 100 µM in [5]; 60.6 µM in [6]. Moreover, the GI50 is above 100 µM in test [7], above 100 µM in test [8], 19.6 µM in [9] and above 100 µM in test [10]. Also, the TGI was above 100 µM in test [1]; 73.2 µM in test [2]; above 100 µM in test [3]; above 100 µM in [4]; above 100 µM in test [5]; above 100 µM in test [6]. The TGI in test [7], in [8], in [9] and in test [10] was above 100 µM throughout.

The record behind these values is PubChem BioAssay (NCI).
